Results as given in patent publication US20100144626A1, “Treatment of Multi-Drug Resistant Bacterial Infections” (priority 2006, published 2010).
In brackets after ≈: the same amount, converted by molar mass. Where two headings read alike, the source gives them in different places.

Tests used:
Gram-negative organisms = test: Growth inhibition, summary of MIC testing; assay type: cell-based; details: summary in words
Protocol: (§1) In example experiments miconazole nitrate, was dissolved in methanol and econazole nitrate and clotrimazole were dissolved in DMSO and methanol respectively. Other solvents that may be used include caster oil, pyridine, DMSO and 0.9% saline. For IV administration agents may be solubilised in polyethoxylated caster oil, or cyclodextrins such as sulfobutylether7-βcyclodextrin or hydroxypropyl-β-cyclodextrin and lactic acid. Minimum inhibitory concentrations (MICs) of a range of clinical and control bacterial organisms were measured according to BSAC (British Society for Antimicrobial Chemotherapy) guidelines, described briefly as follows;
(§2) Stock solutions were prepared at concentrations of 1000 mg/L and 100 mg/L. The appropriate amounts of each stock solution were added to separate Petri dishes give the following final concentrations (after the addition of 20 mL molten agar): 128, 64, 32, 16, 8, 4, 2, 1, 0.5, 0.25, 0.12, 0.06, 0.03, 0.015 mg/L.
(§3) The test organisms were grown overnight in 5 mL IST broth. Using a dilution in 0.9% saline of 1:500 for Gram-negative organisms and 1:100 for Gram-positive organisms, the appropriate agar plates were inoculated using a multipoint inoculator.
(§4) Plates were incubated at 37° C. in air for 18-20 hours.
(§5) The MIC is the minimum amount of an antibiotic at which there is no visible growth of bacteria. Tiny single colonies or faint hazes were not counted as growth.

[1] = system: strains of Staphylococci and Enterococci with reduced susceptibility to vancomycin; test: Growth inhibition, summary of MIC testing; assay type: cell-based; details: summary in words
Protocol: as §1, §2, §3, §4, §5

[2] = system: Escherichia coli NCTC 10418; test: MIC, agar dilution (BSAC guidelines); assay type: cell-based
Protocol: as §1
(§6) Preparation of Agar Plates and Broths
(§7) Stock solutions of each agent were prepared using the formula:
(§8) Where P=μg of active compound per mg (μg/mg) • V=volume required (mL) • C=final concentration of solution (mg/L) • W=weight of agent (mg) to be dissolved in volume V (mL)
as §2
(§9) Volumes (20 mL) of cooled molten IST agar (oxoid) was added to each Petri dish and mixed by swirling.
(§10) After drying, the plates were stored at 4° C. and protected from light. Plates were used on the day of preparation.
as §3, §4, §5

[3] = system: VISA, strain USA/VISA 5827; test: MIC, agar dilution (BSAC guidelines); assay type: cell-based; details: Staphylococcus aureus
Protocol: as §1, §6, §7, §8, §2, §9, §10, §3, §4, §5

[4] = system: Enterococcus faecium (VRE) E19 UAA/522 VanB; test: MIC, agar dilution (BSAC guidelines); assay type: cell-based; details: E. faecium (VRE) E19 UAA/522 VanB
Protocol: as §1, §6, §7, §8, §2, §9, §10, §3, §4, §5

[5] = system: Enterococcus faecium (VRE) E15 VanA ATCC 4147; test: MIC, agar dilution (BSAC guidelines); assay type: cell-based
Protocol: as §1, §6, §7, §8, §2, §9, §10, §3, §4, §5

[6] = system: Pseudomonas aeruginosa NCTC 10662; test: MIC, agar dilution (BSAC guidelines); assay type: cell-based
Protocol: as §1, §6, §7, §8, §2, §9, §10, §3, §4, §5

[7] = system: Enterococcus faecium (VRE) NCTC 7171; test: MIC, agar dilution (BSAC guidelines); assay type: cell-based
Protocol: as §1, §6, §7, §8, §2, §9, §10, §3, §4, §5

[8] = system: Enterococcus faecium (VRE) VanR B145344C LFE; test: MIC, agar dilution (BSAC guidelines); assay type: cell-based; details: E. faecium (VRE) VanR B145344C LFE
Protocol: as §1, §6, §7, §8, §2, §9, §10, §3, §4, §5

[9] = system: Acinetobacter Baumannii ATCC 19606; test: MIC, agar dilution (BSAC guidelines); assay type: cell-based
Protocol: as §1, §6, §7, §8, §2, §9, §10, §3, §4, §5

[10] = system: VISA, strain VISA 3900 UK; test: MIC, agar dilution (BSAC guidelines); assay type: cell-based; details: Staphylococcus aureus
Protocol: as §1, §6, §7, §8, §2, §9, §10, §3, §4, §5

[11] = system: VISA, strain USA/VISA 5836; test: MIC, agar dilution (BSAC guidelines); assay type: cell-based; details: Staphylococcus aureus
Protocol: as §1, §6, §7, §8, §2, §9, §10, §3, §4, §5

[12] = system: Enterococcus gallinarum (VRE) E1 NCTC 12359 VanC1; test: MIC, agar dilution (BSAC guidelines); assay type: cell-based
Protocol: as §1, §6, §7, §8, §2, §9, §10, §3, §4, §5

[13] = system: Staphylococcus epidermidis ATCC 1228; test: MIC, agar dilution (BSAC guidelines); assay type: cell-based
Protocol: as §1, §6, §7, §8, §2, §9, §10, §3, §4, §5

[14] = system: Klebsiella pneumoniae ESBL 700603; test: MIC, agar dilution (BSAC guidelines); assay type: cell-based
Protocol: as §1, §6, §7, §8, §2, §9, §10, §3, §4, §5

[15] = system: Enterococcus faecalis (VRE) E8 VanA; test: MIC, agar dilution (BSAC guidelines); assay type: cell-based; details: E. faecalis (VRE) E8 VanA
Protocol: as §1, §6, §7, §8, §2, §9, §10, §3, §4, §5

[16] = in vivo; cited from earlier work
[17] = replicate 1, read-out: Minimum inhibitory concentration (MIC)
[18] = replicate 2, read-out: Minimum inhibitory concentration (MIC)
[19] = replicate 3, read-out: Minimum inhibitory concentration (MIC)

Clc1ccc(COC(Cn2ccnc2)c2ccc(Cl)cc2Cl)c(Cl)c1 (stereo not drawn) [Miconazole, 1-[2-(2,4-dichlorophenyl)-2-[(2,4-dichlorophenyl)methoxy]ethyl]-1H-imidazole]
activity against Gram-negative organisms (Gram-negative organisms): no significant activity | activity against strains of Staphylococci and Enterococci with reduced susceptibility to vancomycin [1]: good activity | activity against strains of Staphylococci and Enterococci with reduced susceptibility to vancomycin ([1]; listed as miconazole): capable of inhibiting the growth | MIC ([2]; NCTC10418, E. coli NCTC 10418, replicate 1, read-out: Minimum inhibitory concentration (MIC)): > 10 µg/mL | MIC ([2]; NCTC10418, E. coli NCTC 10418, replicate 2, read-out: Minimum inhibitory concentration (MIC)): > 6 µg/mL | MIC ([2]; NCTC10418, E. coli NCTC 10418, replicate 3, read-out: Minimum inhibitory concentration (MIC)): > 6 µg/mL | MIC [3, 17]: 1 µg/mL (≈ 2.4 µM) | MIC [3, 18]: 2 µg/mL (≈ 4.81 µM) | MIC [3, 19]: 1 µg/mL (≈ 2.4 µM) | MIC [4, 17]: 1 µg/mL (≈ 2.4 µM) | MIC [4, 18]: 2.5 µg/mL (≈ 6.01 µM) | MIC [4, 19]: 2.5 µg/mL (≈ 6.01 µM) | MIC ([5]; E. faecium (VRE) E15 VanA ATCC 4147, replicate 1, read-out: Minimum inhibitory concentration (MIC)): 1.5 µg/mL (≈ 3.6 µM) | MIC ([5]; E. faecium (VRE) E15 VanA ATCC 4147, replicate 2, read-out: Minimum inhibitory concentration (MIC)): 3 µg/mL (≈ 7.21 µM) | MIC ([5]; E. faecium (VRE) E15 VanA ATCC 4147, replicate 3, read-out: Minimum inhibitory concentration (MIC)): 3 µg/mL (≈ 7.21 µM) | MIC ([6]; NCTC10662, P. aeruginosa NCTC 10662, replicate 1, read-out: Minimum inhibitory concentration (MIC)): > 10 µg/mL | MIC ([6]; NCTC10662, P. aeruginosa NCTC 10662, replicate 2, read-out: Minimum inhibitory concentration (MIC)): > 6 µg/mL | MIC ([6]; NCTC10662, P. aeruginosa NCTC 10662, replicate 3, read-out: Minimum inhibitory concentration (MIC)): > 6 µg/mL | MIC ([7]; E. faecium (VRE) NCTC 7171, replicate 1, read-out: Minimum inhibitory concentration (MIC)): 3.5 µg/mL (≈ 8.41 µM) | MIC ([7]; E. faecium (VRE) NCTC 7171, replicate 2, read-out: Minimum inhibitory concentration (MIC)): 6 µg/mL (≈ 14.4 µM) | MIC ([7]; E. faecium (VRE) NCTC 7171, replicate 3, read-out: Minimum inhibitory concentration (MIC)): 5.5 µg/mL (≈ 13.2 µM) | MIC [8, 17]: 2.5 µg/mL (≈ 6.01 µM) | MIC [8, 18]: 3 µg/mL (≈ 7.21 µM) | MIC [8, 19]: 2.5 µg/mL (≈ 6.01 µM) | MIC ([9]; ATCC19606, Acinetobacter Baumannii ATCC 19606, replicate 1, read-out: Minimum inhibitory concentration (MIC)): > 10 µg/mL | MIC ([9]; ATCC19606, Acinetobacter Baumannii ATCC 19606, replicate 2, read-out: Minimum inhibitory concentration (MIC)): > 6 µg/mL | MIC ([9]; ATCC19606, Acinetobacter Baumannii ATCC 19606, replicate 3, read-out: Minimum inhibitory concentration (MIC)): > 6 µg/mL | MIC [10, 17]: 1 µg/mL (≈ 2.4 µM) | MIC [10, 18]: 1.5 µg/mL (≈ 3.6 µM) | MIC [10, 19]: 2 µg/mL (≈ 4.81 µM) | MIC [11, 17]: 1 µg/mL (≈ 2.4 µM) | MIC [11, 18]: 2.5 µg/mL (≈ 6.01 µM) | MIC [11, 19]: 2.5 µg/mL (≈ 6.01 µM) | MIC ([12]; E. gallinarum (VRE) E1 NCTC 12359 VanC1, replicate 1, read-out: Minimum inhibitory concentration (MIC)): 2 µg/mL (≈ 4.81 µM) | MIC ([12]; E. gallinarum (VRE) E1 NCTC 12359 VanC1, replicate 2, read-out: Minimum inhibitory concentration (MIC)): 3 µg/mL (≈ 7.21 µM) | MIC ([12]; E. gallinarum (VRE) E1 NCTC 12359 VanC1, replicate 3, read-out: Minimum inhibitory concentration (MIC)): 3.5 µg/mL (≈ 8.41 µM) | MIC ([13]; ATCC1228, S. epidermidis ATCC 1228, replicate 1, read-out: Minimum inhibitory concentration (MIC)): 2.5 µg/mL (≈ 6.01 µM) | MIC ([13]; ATCC1228, S. epidermidis ATCC 1228, replicate 2, read-out: Minimum inhibitory concentration (MIC)): 2 µg/mL (≈ 4.81 µM) | MIC ([13]; ATCC1228, S. epidermidis ATCC 1228, replicate 3, read-out: Minimum inhibitory concentration (MIC)): 2 µg/mL (≈ 4.81 µM) | MIC ([14]; ESBL700603, K. pneumoniae ESBL 700603, replicate 1, read-out: Minimum inhibitory concentration (MIC)): > 10 µg/mL | MIC ([14]; ESBL700603, K. pneumoniae ESBL 700603, replicate 2, read-out: Minimum inhibitory concentration (MIC)): > 6 µg/mL | MIC ([14]; ESBL700603, K. pneumoniae ESBL 700603, replicate 3, read-out: Minimum inhibitory concentration (MIC)): > 6 µg/mL | MIC [15, 17]: 5 µg/mL (≈ 12 µM) | MIC [15, 18]: > 6 µg/mL | MIC [15, 19]: > 6 µg/mL | biological half life, first phase of triphasic elimination [16]: 0.4 hours | biological half life, second phase of triphasic elimination [16]: 2.1 hours | biological half life, third phase of triphasic elimination [16]: 24.1 hours
